Several values for one entry are separate records, joined by “and”; a condition that tells them apart may be missing. Identical values can stand only once.
How the values were obtained:
Type in all cases: cell-based, human
IMR90-4-derived BMECs [1] = test: TEER of RA-treated IMR90-4-derived BMECs (monoculture and neural cell co-culture)
Experimental: (§1) IMR90-4 and DF19-9-11T hiPSCs and H9 hESCs were maintained between passages 26-42 on […] (BD Biosciences) in mTeSR1™ medium ([…] Technologies) or on irradiated mouse embryonic fibroblasts (MEFs) in standard unconditioned medium (Dulbecco's Modified Eagle's Medium [DMEM]/Ham's F12 containing 20% Knockout Serum Replacer (Invitrogen), 1×MEM nonessential amino acids (Invitrogen), 1 mM L-glutamine (Sigma), 0.1 mM β-mercaptoethanol (Sigma), and human basic fibroblast growth factor (bFGF; 100 ng/mL for hiPSCs and 4 ng/mL for hESCs; Waisman Clinical Biomanufacturing Facility, University of Wisconsin-Madison)). Prior to differentiation, cells were passaged onto Matrigel (BD Biosciences) in mTeSR1 medium ([…] Technologies). After 2-3 days in mTeSR1, medium was switched to unconditioned medium (UM) lacking bFGF for 6 days. Human endothelial serum-free medium (hESFM; Invitrogen) supplemented with 20 ng/mL bFGF (R&D Systems) and 1% platelet-poor plasma derived bovine serum (Biomedical Technologies, Inc.) was then added for an additional 2-4 days.
(§2) All-trans RA (Sigma) was included at concentrations of 1-10 μM depending on the experiment. Equivalent DMSO was used as a vehicle control in some experiments. Cells were then dissociated with Versene (Invitrogen) and plated onto 12-well tissue culture polystyrene plates or 1.12 cm^2 Transwell-Clear® permeable inserts (0.4 μm pore size) coated with a mixture of collagen IV (400 μg/mL; Sigma) and fibronectin (100 μg/mL; Sigma). Culture plates were incubated with the coating for at least 30 min at 37° C., while the inserts were incubated for a minimum of 4 h at 37° C. hPSC-derived BMECs were then cultured in EC medium overnight (with or without RA). […] Also, our previous study used hPSCs exclusively maintained on MEFs.
(§3) FIG. 5 dictates the timing of co-culture experiments. During the subculture phase, hPSC-derived BMECs were monocultured or co-cultured with pericytes or fibroblasts in EC medium (with or without RA). After the 24 h subculture phase, hPSC-derived BMECs were maintained as a monoculture or co-cultured with differentiated hNPCs, pericytes, or fibroblasts. Depending on the experiment, co-culture was conducted in NPC differentiation medium containing 10% FBS (as opposed to the 1% FBS used during NPC differentiation) or hESFM containing 1% PDS but not bFGF (modified EC medium). Trans-endothelial electrical resistance (TEER) was measured immediately prior to co-culture using an EVOM voltohmmeter (World Precision Instruments, Sarasota, Fla., USA) and approximately every 24 h thereafter as necessary.

IMR90-4-derived BMECs [2] = test: Analysis of tight junction fidelity (frayed tight junctions, occludin immunolabel)
Experimental: Cells were washed twice with phosphate-buffered saline (PBS; Sigma) and fixed with either 100% ice-cold methanol for 10 min or 4% paraformaldehyde for 15 min. Cells were then washed twice with PBS and blocked in PBS containing 40% goat serum (40% PBSG; Sigma) at 20° C. for 30 min. In some instances, 0.1% Triton X-100 (TX-100) was included during this step to permeabilize the cells. Cells were then washed once with PBS and incubated with primary antibodies against occludin (1:100; Invitrogen), claudin-5 (1:100; Invitrogen), VE-cadherin (1:25; Santa Cruz Biotechnology), von Willebrand Factor (vWF; 1:100; Dako), p-glycoprotein (clone F4; 1:25; Lab Vision), breast cancer resistance protein (BCRP, clone 5D3; 1:25; Millipore), multidrug resistance protein 1 (MRP1, clone QCRL-1; 1:100; Millipore), in 40% PBSG at 4° C. overnight. Cells were washed three times with PBS and incubated with secondary antibodies (goat anti-rabbit Texas Red and goat anti-mouse Alexa Fluor 488; 1:500; Invitrogen) for 1 h at 20° C. Cell nuclei were counterstained with 300 nM 4′,6-Diamidino-2-pheny-lindoldihydrochloride (DAPI) for 10 min. […] For quantitative analysis of BMEC integrity, the percentage of cells expressing frayed tight junctions was counted using BMECs immunolabeled for occludin. […] A minimum of four separate frames and 1000 total cells were counted to obtain a percentage of frayed tight junctions.

H9-derived BMECs = test: TEER of RA-treated H9-derived BMECs
Experimental: as §1, §2, §3

## CC1=C(/C=C/C(C)=C/C=C/C(C)=C/C(=O)O)C(C)(C)CCC1 [RA, retinoic acid]
IMR90-4-derived BMECs [1]; 24 hours after transfer to EC medium without bFGF or RA, monoculture
  TEER: above 2000 Ω×cm^2
IMR90-4-derived BMECs [1]; 24 hours in modified EC medium, fibroblasts (FIG. 11a)
  TEER: 2405±366 Ω×cm^2
IMR90-4-derived BMECs [1]; 24 hours in modified EC medium, monoculture control (FIG. 11a)
  TEER: 2474±124 Ω×cm^2
IMR90-4-derived BMECs [1]; 24 hours, sequential pericyte/hNPC co-culture in modified EC medium (FIG. 11a)
  TEER: 5160±318 Ω×cm^2
IMR90-4-derived BMECs [1]; pericyte/hNPC co-culture, each of 7 co-cultures, hNPCs differentiated 10-19 days, 10% FBS (FIG. 10c)
  TEER: exceeded 2500 Ω×cm^2
IMR90-4-derived BMECs [1]; pericytes/hNPCs in modified EC medium, five out of six separate co-culture experiments
  TEER under optimal conditions: > 5000 Ω×cm^2
IMR90-4-derived BMECs [1]; subculture: monoculture, co-culture phase: differentiated NPCs (10 days), 10% FBS
  Maximum TEER: 2938 ± 229 (3) Ω × cm^2
IMR90-4-derived BMECs [1]; subculture: pericytes, co-culture phase: differentiated NPCs (10 days), 10% FBS
  Maximum TEER: 3606 ± 366 (7) Ω × cm^2
IMR90-4-derived BMECs [1]; subculture: pericytes, co-culture phase: differentiated NPCs (17 days), 1% PDS
  Maximum TEER: 5352±252 Ω × cm^2 and 5352 ± 252 (6) Ω × cm^2
IMR90-4-derived BMECs [1]; subculture: pericytes, co-culture phase: pericytes, 1% PDS (modified EC medium), 24 h
  Maximum TEER: 4454±174 Ω × cm^2 and 4454 ± 175 ^ Ω × cm^2
IMR90-4-derived BMECs [1]; subculture: pericytes, co-culture phase: pericytes, 10% FBS
  Maximum TEER: 2892 ± 271 ^ Ω × cm^2
IMR90-4-derived BMECs [1]; t = 0 h, monoculture, mean ± S.D. between biological replicates
  Average TEER: 956 ± 345 Ω × cm^2
IMR90-4-derived BMECs [1]; t = 0 h, monoculture, mean ± S.D. between triplicate filters
  Maximum TEER: 1502 ± 145 Ω × cm^2
IMR90-4-derived BMECs [1]; t = 24 h, monoculture, modified EC medium without bFGF or RA, between biological replicates
  Average TEER: 2935±802 Ω × cm^2 and at least 2935±802 Ω × cm^2
IMR90-4-derived BMECs [1]; t = 24 h, monoculture, triplicate filters
  Maximum TEER: 3674 ± 367 Ω × cm^2
IMR90-4-derived BMECs [1]; t=0 h, 24 hours after purification at confluence, range over experiments
  baseline TEER: 300-1500 Ω×cm^2
IMR90-4-derived BMECs [1]; t=0, human foreskin fibroblasts in place of pericytes (FIG. 11a)
  TEER: 2106±30 Ω×cm^2
IMR90-4-derived BMECs [1]; t=0, monoculture control of FIG. 11a
  TEER: 1575±163 Ω×cm^2
IMR90-4-derived BMECs [1]; t=0, pericyte co-culture during the subculture phase, standard EC medium (FIG. 11a)
  TEER: 3573±175 Ω×cm^2
IMR90-4-derived BMECs [2]; BMECs only treated with RA
  cells with frayed tight junctions: 1.5±0.9%
IMR90-4-derived BMECs [2]; RA-treated BMECs with sequential pericyte/hNPC co-culture in modified EC medium
  cells with frayed tight junctions: 1.4±0.6%
H9-derived BMECs; optimized RA schedule (6D UM, 1D EC, 3D EC+RA), after purification (FIG. 9c)
  TEER: 1039±142 Ω×cm^2
H9-derived BMECs; subculture: pericytes, co-culture phase: differentiated NPCs (9 days), 1% PDS
  Maximum TEER: 1675±95 Ω × cm^2 and 1675 ± 95 (2) Ω × cm^2
H9-derived BMECs; t = 24 h, optimized RA schedule, between biological replicates
  Average TEER: 646±308 Ω × cm^2
H9-derived BMECs; t = 24 h, triplicate filters
  Maximum TEER: 1028 ± 153 Ω × cm^2

— US10590393B2, “Retinoic acid enhanced human stem cell derived blood brain barrier model” (Wisconsin Alumni Research Foundation, priority 2012, dated 2020)
